Where two headings read alike, the source gives them in different places.
Key:
[1] = tested on: Influenza A/California/7/2009 (H1N1)pdm09; test: organism not typed; assay type: cell-based, Influenza virus; conditions: for IC50: read-out: IC50 ± SD Influenza Virus; for log reduction at 50 µM: read-out: Δlog10(TCID50) Influenza Virus; for SI (selectivity index), the ratio of CD50 to IC50: influenza virus
SARS-CoV-2 [2] = test: microbe, parasite or virus in culture; assay type: cell-based, SARS-CoV-2 (hCoV-19/Russia/Moscow-PMVL-12/2020 strain); conditions: for log reduction at 20 µM: measured at 20 µM
SARS-CoV-2 [3] = test: microbe, parasite or virus in culture; assay type: cell-based, SARS-CoV-2 (hCoV-19/Russia/Moscow-PMVL-12/2020 strain)
MDCK cells = conditions: concentration decreasing cell number by 50%
SARS-CoV-2 RdRp [4] = biological target: T1, SARS-CoV-2 RdRp (Severe acute respiratory syndrome coronavirus 2, UniProt P0DTD1); design: method as in PMID 33674802; conditions: interferes with template and primer RNA binding; cited from earlier work
SARS-CoV-2 RdRp [5] = biological target: T1, SARS-CoV-2 RdRp; conditions: cited from earlier work
[6] = biological target: SARS-CoV-2 RdRp holoenzyme (nsp12, nsp7, nsp8) (Severe acute respiratory syndrome coronavirus 2, UniProt P0DTD1); test: biochemical; assay type: biochemical; conditions: for Inhibition of RNA extension by RdRp: 1 mM inhibitor pre-incubated with RdRp before RNA substrate (Figure 3A); for IC50: RdRp pre-incubated with inhibitor, then RNA substrate and ATP added, read-out: IC50 for inhibition of RdRp activity (RNA extension)
SARS-CoV-2 RdRp [7] = biological target: T1, SARS-CoV-2 RdRp; test: Electrophoretic mobility shift assay of RNA binding by RdRp; conditions: 1 mM inhibitor incubated with RdRp before RNA substrate
SARS-CoV-2 PIK35 strain = tested on: SARS-CoV-2 PIK35 strain; design: method as in PMID 35127150; conditions: Vero cells, read-out: EC50, inhibition of the reproduction of SARS-CoV-2; cited from earlier work
[8] = Severe acute respiratory syndrome coronavirus 2, Vero C1008, Vero E6, vs DMSO-treated control, read-out: Δlog10(TCID50) SARS-CoV-2
[9] = Severe acute respiratory syndrome coronavirus 2, Vero C1008, 96 h, read-out: Δlog10(RNA), logarithmic change in the SARS-CoV-2 RNA levels
[10] = African green monkey (Chlorocebus aethiops)
[11] = concentration reducing the cell number by 50%, MTT

| Molecule | IC50 ([1]; MDCK) [µM] | log reduction at 50 µM ([1]; at 50 µM, MDCK cells) | log reduction at 50 µM (SARS-CoV-2 [2]; [8]) | Anti-SARS-CoV-2 activity grade (SARS-CoV-2 [3]) | log reduction at 50 µM (SARS-CoV-2 [3]; [9]) | CD50 ± SD MDCK (MDCK cells) [µM] | CD50 ± SD Vero E6 (Vero E6 cells; [10]) [µM] | Inhibition of RNA extension by RdRp [6] | further results |
| --- | --- | --- | --- | --- | --- | --- | --- | --- | --- |
| CC(C)(C)c1ccc(Nc2cn(C3C=CC(O)C3)c(=O)[nH]c2=O)cc1 (centres unmarked) [Compound 8] | > 50 | 0.5 | 0.5 | Moderate activity | 1.1 | 552 ± 35 | >500 |  | Effect on SARS-CoV-2 infectivity, TCID50 in Vero cells (SARS-CoV-2 [2]; summary of Table 1): weak protection; Effect on SARS-CoV-2 viral RNA titer (SARS-CoV-2 [3]; summary of Table 1): visible reduction |
| Cc1ccc(C(=O)Nc2ccc(S(=O)(=O)O)c3cc(S(=O)(=O)O)cc(S(=O)(=O)O)c23)cc1NC(=O)c1cccc(NC(=O)Nc2cccc(C(=O)Nc3cc(C(=O)Nc4ccc(S(=O)(=O)O)c5cc(S(=O)(=O)O)cc(S(=O)(=O)O)c45)ccc3C)c2)c1 [suramin] |  |  |  |  |  |  |  |  | Affinity of interaction with RdRp (SARS-CoV-2 RdRp [4]): micromolar affinity |
| Cc1c(C)c2c(c3c1CC[n+]1ccc(/C=C4\Sc5ccccc5N4C)cc1-3)-c1cccc(/C=C3\Sc4ccccc4N3C)[n+]1CC2 [PR673] |  |  |  |  |  |  |  |  | IC50 (SARS-CoV-2 RdRp [5]): ~4 µM |
| 1-(β-D-Ribofuranosyl)-5-(4-tert-butylphenoxy)-uracil [Compound 13] |  |  |  | Moderate activity |  | >1000 |  |  | Δlog10(TCID50) Influenza Virus ([1]; at 50 µM, MDCK cells): 0.5; IC50 [1]: > 50 µM; Δlog10(RNA), logarithmic change in the SARS-CoV-2 RNA levels (SARS-CoV-2 [3]): 0.8; CD50 ± SD Vero E6 (Vero E6 cells; [11]): >500 µM |
| CCCCCc1ccc(-c2cc3cn(C4C=CC(O)C4)c(=O)nc3[nH]2)cc1 (centres unmarked) [Compound 1, 1-(4’-hydroxy-2’-cyclopenten-1-yl)-6-(4-pentylphenyl)-3H-pyrrolo [2,3-d]-pyrimidine-2-one] | > 50 | 0 |  |  |  | 89 ± 12 | 153 ± 5 | completely blocked RNA synthesis | IC50 [6]: 44 ± 2 µM; log reduction at 20 µM (SARS-CoV-2 [2]; [8]): 1; Decrease of the TCID50 value (SARS-CoV-2 [2]; summary of Table 1): ~ 10 fold; Inhibition of RNA binding by RdRp, EMSA (SARS-CoV-2 RdRp [7]): fully prevented RNA binding; log reduction at 10 µM (SARS-CoV-2 [3]; Severe acute respiratory syndrome coronavirus 2, Vero C1008, 96 h, measured at 10 µM (footnote *), Vero E6, vs DMSO, read-out: Δlog10(RNA), logarithmic change in the SARS-CoV-2 RNA levels): 1.5; Decrease of the amount of viral RNA (SARS-CoV-2 [3]; summary of Table 1): > 10 fold; EC50 (SARS-CoV-2 PIK35 strain): 21 µM |
| CCCCCc1ccc(-c2cc3cn(COCCO)c(=O)nc3o2)cc1 [Compound 5, 3-((2-(Hydroxy)ethoxy)methyl)-6-(4-pentylphenyl)-3H-furano [2,3-d]-pyrimidine-2-on] | ~1 | 1.5 | 1 | Moderate activity | 0.3 | 686 ± 46 | 400 ± 98 | completely blocked RNA synthesis | IC50 [1]: 1.34 ± 0.33 µM; IC50 [6]: 72 ± 20 µM; Effect on SARS-CoV-2 infectivity, TCID50 in Vero cells (SARS-CoV-2 [2]; summary of Table 1): stronger effects; Effect on SARS-CoV-2 viral RNA titer (SARS-CoV-2 [3]; summary of Table 1): only weakly affected |
| CC(C)(C)c1ccc(Oc2cn(C3C=CC(O)C3)c(=O)n(C3C=CC(O)C3)c2=O)cc1 (centres unmarked) [Compound 10] | > 50 | -0.5 |  |  | 0.8 | 418 ± 42 | 500 ± 30 | completely blocked RNA synthesis | log reduction at 2 µM (SARS-CoV-2 [2]; Severe acute respiratory syndrome coronavirus 2, Vero C1008, measured at 2 µM (footnote ***), Vero E6, vs DMSO-treated control, read-out: Δlog10(TCID50) SARS-CoV-2): 0.5; Inhibition of RNA binding by RdRp, EMSA (SARS-CoV-2 RdRp [7]): fully prevented RNA binding |
| CC(C)(C)c1ccc(Nc2cn(C3C=CC(O)C3)c(=O)n(C3C=CC(O)C3)c2=O)cc1 (centres unmarked) [Compound 9] | > 50 | 0.5 | 0.5 |  | 0.8 | 392 ± 9 | 220 ± 23 | weaker effects |  |
| O=c1nc(NO)ccn1[C@@H]1O[C@H](CO)[C@@H](O)[C@H]1O [NHC, N4-hydroxycitidine, reference compound] |  |  |  |  |  |  |  |  | Δlog10(RNA), logarithmic change in the SARS-CoV-2 RNA levels (SARS-CoV-2 [3]; measured at 10 µM (footnote *), Vero E6, vs DMSO): 3.9 *; CD50 ± SD Vero E6 (Vero E6 cells; [11]): 80 ± 18 µM |
| CC(C)(C)c1ccc(-c2cc3cn(COCCO)c(=O)[nH]c-3n2)cc1 [Compound 14, 3-((2-(Hydroxy)ethoxy)methyl)-6-(4-tert-butylphenyl)-3H-pyrrolo [2,3-d]-pyrimidine-2-one] | ~1 | 1.5 | 1 | Moderate activity | 0.4 | 74 ± 18 | 310 ± 24 | completely blocked RNA synthesis | SI (selectivity index), the ratio of CD50 to IC50 ([1]; MDCK cells): 110.61; IC50 [1]: 0.67 ± 0.12 µM; IC50 [6]: 244 ± 58 µM; Effect on SARS-CoV-2 infectivity, TCID50 in Vero cells (SARS-CoV-2 [2]; summary of Table 1): stronger effects; Inhibition of RNA binding by RdRp, EMSA (SARS-CoV-2 RdRp [7]): fully prevented RNA binding; Effect on SARS-CoV-2 viral RNA titer (SARS-CoV-2 [3]; summary of Table 1): only weakly affected |
| CC(C)(C)c1ccc(-c2cc3cn(C4C=CC(O)C4)c(=O)nc3[nH]2)cc1 (centres unmarked) [Compound 2, 1-(4’-hydroxy-2’-cyclopenten-1-yl)-6-(4-tert-butylphenyl)-3H-pyrrolo [2,3-d]-pyrimidine-2-one] | ~1 | 1.5 |  |  | 0.3 | 68 ± 5 | 150 ± 15 |  | SI (selectivity index), the ratio of CD50 to IC50 ([1]; MDCK cells): 49.60; IC50 [1]: 1.37 ± 0.28 µM; log reduction at 20 µM (SARS-CoV-2 [2]; [8]): 0.5; EC50 (SARS-CoV-2 PIK35 strain): 53 µM |
| CCCCCc1ccc(-c2cc3cn(COCCO)c(=O)[nH]c-3n2)cc1 [Compound 7, 3-((2-(Hydroxy)ethoxy)methyl)-6-(4-pentylphenyl)-3H-pyrrolo [2,3-d]-pyrimidine-2-one] | > 50 | 0.5 | 0 |  | 0.4 | 74 ± 12 | 240 ± 19 |  | Effect on SARS-CoV-2 infectivity, TCID50 in Vero cells (SARS-CoV-2 [2]; summary of Table 1): inactive; Effect on SARS-CoV-2 viral RNA titer (SARS-CoV-2 [3]; summary of Table 1): inactive |
| CCOC(=O)C1=C[C@@H](OC(CC)CC)[C@H](NC(C)=O)[C@@H](N)C1 [Oseltamivir, reference compound] | 0.61 ± 0.15 |  |  |  |  | 500 ± 82 |  |  | SI (selectivity index), the ratio of CD50 to IC50 ([1]; MDCK cells): 820 |
| CCCCCc1ccc(-c2cc3cn(C4C=CC(O)C4)c(=O)nc3o2)cc1 (centres unmarked) [Compound 3] | > 50 | 0 |  | Moderate activity | 1.3 | 442 ± 21 | >500 | completely blocked RNA synthesis | log reduction at 20 µM (SARS-CoV-2 [2]; [8]): 0.5 |
| O=C(N[C@@H](Cc1ccc(O)cc1)C(=O)O)c1cc(-c2ccccc2)c(=O)n2c1sc1ccc(OC3CCCCC3)cc12 [HeE1-2Tyr] |  |  |  |  |  |  |  |  | IC50 (SARS-CoV-2 RdRp [5]): 27 µM |
| CC(C)(C)c1ccc(Oc2cn(C3C=CC(O)C3)c(=O)[nH]c2=O)cc1 (centres unmarked) [Compound 11] | > 50 | -0.5 |  | Moderate activity | 0.7 | >1000 | 440 ± 6 |  | log reduction at 20 µM (SARS-CoV-2 [2]; [8]): 1 |
| CCCCCc1ccc(-c2cc3cn([C@@H]4O[C@H](CO)[C@@H](O)[C@H]4O)c(=O)nc3o2)cc1 [Compound 4, 3-(β-D-Ribofuranosyl)-6-(4-pentylphenyl)-3H-furano [2,3-d]-pyrimidine-2-on] | > 25 | 1 |  |  | 0.2 | 652 ± 77 | >500 |  | log reduction at 20 µM (SARS-CoV-2 [2]; [8]): 0.5 |
| CCCCCc1ccc(-c2cc3cn([C@@H]4O[C@H](CO)[C@@H](O)[C@H]4O)c(=O)[nH]c-3n2)cc1 [Compound 6, 3-(β-D-ribofuranosyl)-6-(4-pentylphenyl)-3H-pyrrolo [2,3-d]-pyrimidine-2-on] | > 50 | 0 | 0 |  | 0.2 | 614 ± 52 | 450 ± 166 |  | Effect on SARS-CoV-2 infectivity, TCID50 in Vero cells (SARS-CoV-2 [2]; summary of Table 1): inactive; Effect on SARS-CoV-2 viral RNA titer (SARS-CoV-2 [3]; summary of Table 1): inactive |

Reference: article PMC9959748, “Nucleoside Analogs That Inhibit SARS-CoV-2 Replication by Blocking Interaction of Virus Polymerase with RNA” (International Journal of Molecular Sciences, 2023)
